Series [1] deals with murine red blood cells. The series is described as follows: Red blood cell hemolysis. The format is cell-based, mouse. Conditions: for Hemolysis HD50: red cells of murine. Put shortly: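 Washed murine erythrocytes at 5% in saline with 10% FBS were exposed to serial peptide dilutions for 30 min at 37° C. Supernatant absorbance at 560 nm was read, with saline as 0% and 1% Triton X-100 as 100% hemolysis.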

For series [2], the system named is vancomycin-resistant Enterococus faecalis (VRE)(ATCC 51575). Format: cell-based, Enterococcus faecalis. More on the design: key to VRE (in vitro activity): peptide concentration in μg/ml (broth dilution assay). Conditions: for VRE MIC: ATCC 51575; for VRE (in vitro activity): Table 9. The method, boiled down:
(§1)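 Broth microdilution (macrodilution in some cases) per NCCLS M7-A4; peptides 2-fold serially diluted in 5% DMSO/9% sucrose, ~400-2 μg/ml before dilution into broth; inoculum ~2.5×10^5 cfu/ml from overnight culture diluted 4000×.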

The subject of series [3] is E. coli JM109(DE3). The format is cell-based, Escherichia coli. Conditions: JM109. The procedure: The antimicrobial activity of the peptides was determined using a broth dilution assay essentially as descried in the guidelines of the National Committee for […] (NCCLS) [National Committee for Clinical Laboratory Standards. Methods for dilution antimicrobial susceptibility tests for bacteria that grow aerobically. Fourth edition. Approved Standard (1997). Document M7-A4. […] The microdilution method has the advantages of requiring less amount of peptide for each assay and the possibility of multiple simultaneous inoculations and was used in most studies. Several of the strains of bacteria tested are further described in Table 3.
Preparation of peptide solutions. Stock peptide solutions were prepared in 5% DMSO in aq. sucrose (9%). Determination of peptide concentrations was done by quantitative HPLC analysis using known concentrations of internal standards and/or by measuring UV absorption of tryptophane-containing peptide solutions in H2O (λ=280 εTrp: 5690). Serial 2-fold dilutions were made in the above DMSO/aq. sucrose (9%) mixture with concentrations ranging approximately 400-2 μg/ml and aliquots were dispensed in test tubes (100 μl) for the macrodilution test or in microtiter plates (20 μl) for the microdilution assays.
Inoculum preparation. Overnight cultures of different microorganisms grown in suitable media were diluted 4000 times to an approximate inoculum size of 2.5×10^5 cfu/ml.
Macrodilution method. Macrodilution methods were performed using procedures similar to those described in the National Committee for Clinical Laboratory Standards. Methods for dilution antimicrobial susceptibility tests for bacteria that grow aerobically. Fourth edition. Approved Standard (1997). Document M7-A4. (NCCLS,Villanova, Pa., 1997). Two ml aliquots of the above inoculum were dispensed to test tubes containing different peptide solutions.
Microdilution method. Microdilution methods were performed using procedures similar to those described in the National Committee for Clinical Laboratory Standards. Methods for dilution antimicrobial susceptibility tests for bacteria that grow aerobically. Fourth edition. Approved Standard (1997). Document M7-A4.

In series [4] the test system is S. aureus (MRSA) ATCC 33591. The format is cell-based, Staphylococcus aureus. Conditions: for MRSA MIC / S. aureus (MRSA) MIC: ATCC 33591; for MRSA (in vitro activity): Table 9. Put shortly: as §1
In series [5] the test system is Streptococcus pneumoniae (ATCC 6301). Format: cell-based. The method, boiled down: as §1
The test system of series [6] is Bacillus cereus ATCC 11778. Format: cell-based. The method, boiled down: as §1
Setting [7] is: media a: anti-microbial media-3 (AM-3).

Where two headings read alike, the source gives them in different places. Non-standard residues stand in square brackets, D forms with d. Residues, ends and D or L forms follow the SMILES beside them. NMeL = CN[C@@H](CC(C)C)C(=O)O

In the case of `CC(C)C[C@@H]1NC(=O)[C@@H](Cc2c[nH]c3ccccc23)NC(=O)[C@H](CCCCN)NC(=O)[C@@H](CCCNC(=N)N)NC(=O)[C@H](CCCCN)NC(=O)[C@@H](Cc2c[nH]c3ccccc23)NC(=O)[C@H](CC(C)C)NC(=O)[C@@H](Cc2c[nH]cn2)NC1=O` [SEQ ID NO:101, [KRKWLHLW]] (cyclo(K[dR]K[dW]L[dH]L[dW])), in series [1], the “RBC Hemolysis (HD50)” value is 100 and the Hemolysis HD50 is 100 µg/mL. This molecule gave a VRE MIC in series [2] of 40 µg/mL. Moreover, the “VRE (in vitro activity)” value in series [2] (media a: AM-3) turned out to be 40. In series [3], the E. coli MIC was 12 µg/mL. The molecule further returned an MRSA MIC in series [4] of 40 µg/mL. Besides, in series [4] (setting [7]), the “MRSA (in vitro activity)” value was determined as 40. In series [5], this molecule returned a S. pneum. MIC of 80 µg/mL. The same molecule had a B. cerius MIC in series [6] of 80 µg/mL.
`CC(=O)N[C@H](CCCCN)C(=O)N[C@@H](CCCCN)C(=O)N[C@H](CCCCN)C(=O)N[C@@H](Cc1c[nH]c2ccccc12)C(=O)N[C@H](CC(C)C)C(=O)N[C@@H](Cc1c[nH]c2ccccc12)C(=O)N[C@H](CC(C)C)C(=O)N[C@H](Cc1c[nH]c2ccccc12)C(N)=O` [SEQ ID NO:25, Ac-KKKWLWLW-CONH2] (Ac-[dK]K[dK]W[dL]W[dL][dW]-NH2): in series [1], the Hemolysis HD50 turned out to be 100 µg/mL. In addition, the VRE MIC in series [2] was 100 µg/mL. For the same molecule, the E. coli MIC in series [3] was determined as 20 µg/mL. In series [4], the MRSA MIC was found to be 100 µg/mL and the “S. aureus (MRSA) MIC” value was found to be 80 µg/mL. This molecule also displayed a S. pneum. MIC in series [5] of 80 µg/mL. Moreover, the B. cerius MIC in series [6] was found to be 75 µg/mL.
Molecule `CC(=O)N[C@H](CCCNC(=N)N)C(=O)N[C@@H](CCCNC(=N)N)C(=O)N[C@H](CCCCN)C(=O)N[C@@H](Cc1c[nH]c2ccccc12)C(=O)N[C@H](CC(C)C)C(=O)N[C@@H](Cc1c[nH]c2ccccc12)C(=O)N[C@H](CC(C)C)C(=O)N[C@@H](Cc1c[nH]c2ccccc12)C(N)=O` [SEQ ID NO:136, Ac-RRKWLWLW-NH2] (Ac-[dR]R[dK]W[dL]W[dL]W-NH2) gave a Hemolysis HD50 in series [1] of 100 µg/mL. Besides, the VRE MIC in series [2] stood at 100 µg/mL. Also, the E. coli MIC in series [3] was found to be 6 µg/mL. This molecule also gave an MRSA MIC in series [4] of 70 µg/mL. The molecule also came in with a S. pneum. MIC in series [5] of 40 µg/mL. The molecule also came in with a B. cerius MIC in series [6] of 22 µg/mL.
Turning to `CC(C)C[C@H]1C(=O)N[C@H](Cc2c[nH]c3ccccc23)C(=O)N(C)[C@@H](CC(C)C)C(=O)N[C@H](Cc2c[nH]c3ccccc23)C(=O)N[C@@H](CCCNC(=N)N)C(=O)N[C@H](CCCNC(=N)N)C(=O)N[C@@H](CCCCN)C(=O)N[C@H](Cc2c[nH]c3ccccc23)C(=O)N1C` [SEQ ID NO:139, c[RRKW^MeLW^MeLW]] (cyclo(R[dR]K[dW][NMeL][dW][NMeL][dW])), the Hemolysis HD50 in series [1] was found to be 100 µg/mL. Moreover, in series [2], the VRE MIC came out at 30 µg/mL. Also, the E. coli MIC in series [3] was determined as 5 µg/mL. For the same molecule, the MRSA MIC in series [4] turned out to be 5 µg/mL. The molecule further returned a S. pneum. MIC in series [5] of 10 µg/mL. In series [6], this molecule had a B. cerius MIC of 5 µg/mL.
In the case of `CC(C)C[C@H]1NC(=O)[C@H](Cc2c[nH]c3ccccc23)NC(=O)[C@@H](Cc2c[nH]cn2)NC(=O)[C@H](Cc2c[nH]cn2)NC(=O)[C@@H](CO)NC(=O)[C@H](Cc2c[nH]c3ccccc23)NC(=O)[C@@H](CC(C)C)NC(=O)[C@H](Cc2c[nH]c3ccccc23)NC1=O` [SEQ ID NO:15, SHHWLWLW] (cyclo([dS]H[dH]W[dL]W[dL]W)), the “RBC Hemolysis (HD50)” value in series [1] stood at 20. Moreover, the VRE MIC in series [2] was 50 µg/mL. Besides, the “VRE (in vitro activity)” value in series [2] (media a: AM-3) was 50. For the same molecule, the “E. coli MIC” value in series [3] was 100 µg/mL. Besides, in series [4], the MRSA MIC stood at 30 µg/mL and the “S. aureus (MRSA) MIC” value is 20 µg/mL. For the same molecule, in series [4] (setting [7]), the “MRSA (in vitro activity)” value is recorded as 30. Besides, in series [5], the S. pneum. MIC was determined as 40 µg/mL. In series [6], this molecule registered a B. cerius MIC of 11 µg/mL.
Turning to `CC(C)C[C@H]1NC(=O)[C@H](Cc2c[nH]c3ccccc23)NC(=O)[C@@H](CCCCN)NC(=O)[C@H](CCCNC(=N)N)NC(=O)[C@@H](CCCNC(=N)N)NC(=O)[C@H](Cc2c[nH]c3ccccc23)NC(=O)[C@@H](CC(C)C)NC(=O)[C@H](Cc2c[nH]cn2)NC1=O` [SEQ ID NO:110, [RRKWLHLW]] (cyclo([dR]R[dK]W[dL]H[dL]W)), in series [1], the “RBC Hemolysis (HD50)” value is 100 and the Hemolysis HD50 is 100 µg/mL. The molecule further returned a VRE MIC in series [2] of 40 µg/mL. Besides, the “VRE (in vitro activity)” value in series [2] (media a: AM-3) is given as 40. Besides, in series [3], the E. coli MIC was determined as 15 µg/mL. Also, the MRSA MIC in series [4] is 25 µg/mL. Further, in series [4] (setting [7]), the “MRSA (in vitro activity)” value was found to be 25. Also, the S. pneum. MIC in series [5] amounted to 20 µg/mL. In series [6], this molecule showed a B. cerius MIC of 20 µg/mL.
Take `CC(C)C[C@H]1NC(=O)[C@H](Cc2c[nH]c3ccccc23)NC(=O)[C@@H](CO)NC(=O)[C@H](Cc2c[nH]cn2)NC(=O)[C@@H]([C@H](C)O)NC(=O)[C@H](Cc2c[nH]c3ccccc23)NC(=O)[C@@H](CC(C)C)NC(=O)[C@H](Cc2c[nH]c3ccccc23)NC1=O` [SEQ ID NO:6, cyclo-(D-Thr-His-D-Ser-Trp-D-Leu-Trp-D-Leu-Trp)] (cyclo(H[dS]W[dL]W[dL]W[dT])): the “RBC Hemolysis (HD50)” value in series [1] is 100. This molecule also gave a VRE MIC in series [2] of 100 µg/mL. Further, the “VRE (in vitro activity)” value in series [2] (media a: AM-3) amounted to 100. The “E. coli MIC” value in series [3] was 100 µg/mL. Also, in series [4], the MRSA MIC worked out at 100 µg/mL and the “S. aureus (MRSA) MIC” value amounted to 100 µg/mL. In addition, the “MRSA (in vitro activity)” value in series [4] (setting [7]) amounted to 100. For the same molecule, the S. pneum. MIC in series [5] amounted to 100 µg/mL. The B. cerius MIC in series [6] is more than 280 µg/mL.
`CC(C)C[C@H]1NC(=O)[C@H](CCCCN)NC(=O)[C@@H](CC(C)C)NC(=O)[C@H](Cc2c[nH]c3ccccc23)NC(=O)[C@@H](CC(C)C)NC(=O)[C@H](Cc2c[nH]c3ccccc23)NC(=O)[C@@H](CC(C)C)NC(=O)[C@H](Cc2c[nH]c3ccccc23)NC1=O` [SEQ ID NO:3, cyclo[-Lys-D-Leu-(Trp-D-Leu)3]] (cyclo(K[dL]W[dL]W[dL]W[dL])) yielded a Hemolysis HD50 in series [1] of 20 µg/mL. In addition, in series [2], the VRE MIC came out at 80 µg/mL. The molecule further showed an E. coli MIC in series [3] of 100 µg/mL. In addition, the “MRSA MIC” value in series [4] (Table 10) is “ppt”. This molecule also came in with a S. pneum. MIC in series [5] of 50 µg/mL. The B. cerius MIC in series [6] was 50 µg/mL.
Regarding `CC(C)C[C@H]1NC(=O)[C@H](CO)NC(=O)[C@@H](CCCCN)NC(=O)[C@H](Cc2c[nH]c3ccccc23)NC(=O)[C@@H](CC(C)C)NC(=O)[C@H](Cc2c[nH]c3ccccc23)NC1=O` [SEQ ID NO:28, cyclo-(D-Lys-Ser-D-Leu-Trp-D-Leu-Trp)] (cyclo(S[dL]W[dL]W[dK])), the “RBC Hemolysis (HD50)” value in series [1] is listed as 90. Further, the VRE MIC in series [2] was 100 µg/mL. In series [2] (media c: Brain Heart Infusion (BHI)), the “VRE (in vitro activity)” value came out at 100. Moreover, in series [3], the “E. coli MIC” value came out at 100 µg/mL. For the same molecule, in series [4], the MRSA MIC came to 100 µg/mL and the “S. aureus (MRSA) MIC” value worked out at 75 µg/mL. Besides, the “MRSA (in vitro activity)” value in series [4] (media b: cation adjusted Meuller Hinton broth (MHBII)) was 100. For the same molecule, the S. pneum. MIC in series [5] turned out to be 20 µg/mL. Besides, the B. cerius MIC in series [6] was found to be 15 µg/mL.

(Values after patent US20050107289A1, “Anti-microbial peptides and compositions” (priority 2001, published 2005).)
